The source of these data is patent publication US20150045610A1, “METHOD OF MODIFYING SPERMATOGENESIS, SPERMIOGENESIS AND/OR FERTILITY IN MAMMALS” (Monell Chemical Senses Center, priority 2012, published 2015).

≈ marks a conversion by molar mass, not a printed value.

Data set [1] deals with PDE 8. Conditions: read-out: IC50, PDE 8; cited from earlier work.
Data set [2] deals with PDE 1. Conditions: cited from earlier work.
Data set [3] addresses T1, humanized mhT1R3 (Homo sapiens, UniProt Q7RTX0, A109T/A120V/A176D/A197V/A198V/A228S/A231N/A248T/A280V/A282S/A302S/A412V/A417V/A46T/A537T/C375D/D124S/D249S/D250G/D364H/D419E/D470T/D491G/D88A/DEL352-352/DEL488-489/E172D/E199T/E203N/E217D/E356N/E45S/E481Q/E505D/E525K/E545Q/F540P/F555L/G168S/G205S/G311T/G314N/G355L/G360D/G414H/G438R/G439D/G463S/G50T/G542N/H261R/H278R/H281Y/H332P/I485M/I536F/INS376MLQNLSSG/K32Q/K339E/K422L/K494V/K86G/L173R/L245Q/L272V/L29F/L354S/L385Q/L433M/L458M/L483S/L71F/L74M/M151L/M315I/M318V/M31A/N285S/N386L/N532H/N68L/P112S/P246H/P335S/P416H/P420H/P441T/P60I/Q221E/Q257L/Q317R/Q330L/Q336H/Q359L/Q372R/Q418S/Q504K/Q531K/R123Q/R247D/R252Q/R291G/R30K/R357A/R443Q/R467V/R473T/R479Q/R482Q/R486Y/R498Q/R52N/R550K/R553A/R556P/R560K/R56Q/S251Q/S267K/S289H/S290H/S392A/S446A/S447E/S464P/S477T/S490P/S53Q/S559P/S58N/S67P/T195Q/T346A/T377L/T390I/T434S/T480L/T63N/V152I/V277A/V366M/V36I/V381L/V393T/V437A/V465T/V61P/W72L).
T1 construct: the extracellular domain is of mouse origin and the transmembrane and intracellular domains of human origin; mouse T1R3 extracellular domain (fusion partner replacing the human extracellular domain); expressed in transfected cells; host or cells: transgenic Line 7c mice (T1R3-/-, Gus-/-, mhT1R3+/-)
T1 sequence (Q7RTX0 with tags, fused parts or gaps L29F/R30K/M31A/K32Q/V36I/E45S/A46T/G50T/R52N/S53Q/R56Q/S58N/P60I/V61P/T63N/S67P/N68L/L71F/W72L/L74M/K86G/D88A/A109T/P112S/A120V/R123Q/D124S/M151L/V152I/G168S/E172D/L173R/A176D/T195Q/A197V/A198V/E199T/E203N/G205S/E217D/Q221E/A228S/A231N/L245Q/P246H/R247D/A248T/D249S/D250G/S251Q/R252Q/Q257L/H261R/S267K/L272V/V277A/H278R/A280V/H281Y/A282S/N285S/S289H/S290H/R291G/A302S/G311T/G314N/M315I/Q317R/M318V/Q330L/H332P/P335S/Q336H/K339E/T346A/DEL352-352/L354S/G355L/E356N/R357A/Q359L/G360D/D364H/V366M/Q372R/C375D/INS376MLQNLSSG/T377L/V381L/L385Q/N386L/T390I/S392A/V393T/A412V/G414H/P416H/A417V/Q418S/D419E/P420H/K422L/L433M/T434S/V437A/G438R/G439D/P441T/R443Q/S446A/S447E/L458M/G463S/S464P/V465T/R467V/D470T/R473T/S477T/R479Q/T480L/E481Q/R482Q/L483S/I485M/R486Y/DEL488-489/S490P/D491G/K494V/R498Q/Q504K/E505D/E525K/Q531K/N532H/I536F/A537T/F540P/G542N/E545Q/R550K/R553A/F555L/R556P/S559P/R560K limits assumed): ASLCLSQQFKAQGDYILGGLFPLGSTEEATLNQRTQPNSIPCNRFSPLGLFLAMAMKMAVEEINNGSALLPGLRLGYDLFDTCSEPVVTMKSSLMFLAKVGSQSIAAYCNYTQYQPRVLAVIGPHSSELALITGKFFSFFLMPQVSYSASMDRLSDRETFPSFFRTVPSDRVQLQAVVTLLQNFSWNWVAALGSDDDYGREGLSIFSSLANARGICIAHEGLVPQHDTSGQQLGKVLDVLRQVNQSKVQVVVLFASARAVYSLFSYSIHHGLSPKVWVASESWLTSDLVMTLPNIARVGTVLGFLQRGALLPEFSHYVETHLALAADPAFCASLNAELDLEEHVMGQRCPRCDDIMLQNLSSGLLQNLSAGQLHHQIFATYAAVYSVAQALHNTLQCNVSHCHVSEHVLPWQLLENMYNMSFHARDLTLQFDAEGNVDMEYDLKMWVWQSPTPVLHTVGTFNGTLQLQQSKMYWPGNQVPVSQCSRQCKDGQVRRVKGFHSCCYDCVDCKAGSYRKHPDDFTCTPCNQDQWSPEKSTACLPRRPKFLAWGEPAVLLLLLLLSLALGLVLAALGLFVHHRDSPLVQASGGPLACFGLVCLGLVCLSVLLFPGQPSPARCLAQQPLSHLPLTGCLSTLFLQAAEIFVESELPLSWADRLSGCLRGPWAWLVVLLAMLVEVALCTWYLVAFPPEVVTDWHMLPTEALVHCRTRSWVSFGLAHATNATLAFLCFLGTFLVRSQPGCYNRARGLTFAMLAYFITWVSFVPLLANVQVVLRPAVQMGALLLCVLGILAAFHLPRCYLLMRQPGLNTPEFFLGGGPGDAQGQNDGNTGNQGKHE
Put plainly: T1R3 pharmacological block with clofibrate diet (male reproduction). The data set is classed as in vivo, mouse. Conditions: clofibrate diet 300 mg/kg body weight, line 7c and WT males. How it is done: Matched groups (six males each) of WT and line 7c mice (expressing the chimerical mhT1R3 transgene on a T1R3/α-gustducin double-null background), 3-6 months old, were fed the indicated diets for 4-6 weeks. Each genotype was tested in two groups, one on the regular diet and one on a test diet with clofibrate. An additional group of males stayed on the test diet for another 4-6 weeks, during which time they were mated with WT females to determine whether the pharmacological intervention was effective. Then the animals were allowed to recover on the regular diet for an additional 4 weeks after the end of the treatment (half-time for total sperm turnover in mice), and again were tested for their reproductive capacity, and then their tissues were analyzed. […]
We observed spermatozoa after clofibrate treatment represent cells that were able to escape the inhibition of clofibric acid, most likely due to very fast clearance and fluctuating levels in rodents. […] Therefore, we measured sperm concentration as an indicator of efficiency of the pharmacological block and to be able to determine the concentration that results in effective sterility. We analyzed testicular morphology, sperm production, sperm motility and sperm function in in vitro fertilization after feeding these animals with the lipid lowering drug clofibrate. […]

A short description of data set [4]: solubility. The data set is classed as physicochemical.
The subject of data set [5] is PDE 4. Conditions: quantity not given; read-out: inhibition of PDE 4; cited from earlier work.

Turning to `OCCN(CCO)c1nc(N2CCCCC2)c2nc(N(CCO)CCO)nc(N3CCCCC3)c2n1` [Dipyridamole], the IC50 in data set [1] is 4 to 9 µM.
Consider `CCOC(=O)C1=C[C@]2(CC)CCCN3CCc4c(n1c1ccccc41)[C@@H]32` [Vinpocetine], for which the IC50 in data set [2] was 10 µM.
The solubility is the dissolved amount per volume that the medium holds. Low readings indicate little dissolved substance, high ones much dissolved substance. For the compound `CCOC(=O)C(C)(C)Oc1ccc(Cl)cc1` [clofibrate], the “effect on the health of the animals” value in data set [3] is “no apparent effect”. The compound also registered a solubility in data set [4] of 5000 µg/mL (≈ 20.6 mM).
Turning to `COc1ccc(C2CNC(=O)C2)cc1OC1CCCC1` (centres unmarked) [rolipram], the IC50 in data set [5] was […].
